Measurements reported in patent US11999737B2, “Kinase inhibitors and related methods of use” (Duke University, priority 2014, dated 2024).

How the values were obtained:
[1] = tested on: spontaneous hypertensive rat (SHR); assay: HS-38 treatment of spontaneous hypertensive rats, vessel properties; assay type: in vivo
Procedure: The myogenic response and ZIP-dependency of pressure autoregulation were assessed. Two age groups, 8-10 weeks and 18-20 weeks, were used to permit identification of age-dependent alterations in myogenic responses associated with the onset of diabetes/hypertension and after the diseases had become fully established. Two rat models were used, spontaneous hypertensive rat(SHR) model, and Goto-Kakizaki (GK) rat model of type 2 diabetes (T2D). […] HS-38 treatment attenuated myogenic hypercontractility in the cremaster artery of spontaneously-hypertensive rats (SHR; FIG. 33; WKY=Wistar Kyoto rat, control).
No effect of HS38 was observed on the ratio of wall thickness/vessel diameter in the SHR mesenteric artery.

[2] = tested on: RLC20 phosphorylation; assay: RLC20 phosphorylation in serum-starved aortic smooth muscle cells; assay type: cell-based, mouse; settings: 30 min
Procedure: A, Typical myograph force trace showing the effect of HS38 on intact mouse aorta contractility. The maximum contractile force of PE-induced contraction was reduced by approximately 30% when HS38 (10 μM) was added five minutes prior to PE addition and by approximately 40% when added ten minutes after PE addition. B, Serum-starved aortic SM cells were treated with SIP (0.25 μM) and HS-38 (±50 μM) for 30 min.
For Western blots, tissues and cultured cells were lysed in 1% SDS, NaCl (300 mM), Tris-HCl (50 mM, pH 7.5), subjected to SDS-PAGE, transferred to polyvinylidene difluoride membrane (Millipore) and visualized using the Odyssey System (Li-Cor). For Odyssey imaging, the membranes were blocked with Odyssey Blocking Buffer and then subjected to anti-MYPT1 (1:2,000) (BD Transduction), phospho-MYPT1 (Thr696) (1:1,000) (Millipore), RLC20 (1:2000) (Sigma) and phospho-RLC20 (1:1000) (Cell Signaling Technology) antibodies. Antibodies were diluted in appropriate blocking buffer. The membranes were washed in TBS with 0.05% Tween 20. Primary antibodies were visualized using secondary antibodies conjugated to Alexa 680 (Invitrogen) or IRDye800 (Li-Cor).
Cell Culture: Mouse aortic SM cells were prepared. The cell line was cultured in AmnioMax medium (Gibco) supplemented with 10% embryonic stem cell-qualified fetal bovine serum (Invitrogen) and penicillin-streptomycin (Invitrogen). […]

[3] = tested on: RLC20 phosphorylation; assay: Western blot of RLC20 phosphorylation in Ca2+-sensitized rabbit ileum; settings: HS38 50 μM
Procedure: To examine the effect of ZIPK inhibition on sensitized force, muscle strips were stimulated with an intermediate calcium concentration solution (pCa 6.5). Once force reached a plateau, strips were Ca^2+-sensitized by the addition of the agonist carbachol (5 μM). Up to 2 μM of GTP was added together with the sensitizing agonist to compensate for possible loss of GTP during permeabilization. At the plateau of Ca-sensitized force (5-10 min upon stimulation), the ZIPK inhibitor, HS38 (50 μM) or diluent (0.1% DMSO) was added and the force relaxation time course was recorded. Tissue samples were frozen 20 min after the addition of HS38 for biochemical assays of RLC20 and MYPT1 phosphorylation.
MYPT1 and RLC20 phosphorylation: To examine the phosphorylation of MYPT1 and RLC20, rabbit ileum SM strips were treated as described above and previously reported. (Gong et al. (1995), J. Physiol.-London 486, 113-122; Kitazawa et al. (1989) J. Biol. Chem. 264, 5339-5342; Kobayashi et al. (1991) Am. J. Physiol. 260, C364-C370), Following the stimulation protocols, muscle strips were immediately frozen by immersion in −80° C. acetone with trichloroacetic acid (10% w/v) and stored at −80° C. […] Phosphorylation of MYPT1 Thr696 and of RLC20 was determined by SDS-PAGE and Western blotting. […]

[4] = tested on: isolated PCA vessels (posterior cerebral artery of the rat); assay: Dilation of isolated PCA vessels previously constricted with 5HT
Source text: FIG. 47 is a graph of HS-38 concentration versus percent dilation of isolated PCA vessels (posterior cerebral artery of the rat) previously constricted with 5HT.
ZIPK expression differences within different vascular beds may provide distinct pharmacology.

## CC(Sc1nc2c(cnn2-c2cccc(Cl)c2)c(=O)[nH]1)C(N)=O (centres unmarked) [HS38]
[1]; HS-38 treatment
  circumferential strain: increased
  vessel narrowing seen in hypertension: partially reversed
[1]; HS-38 treatment, SHR
  myogenic hypercontractility in the cremaster artery: attenuated
[1]; SHR mesenteric artery
  ratio of wall thickness/vessel diameter: No effect
[2]; 50 μM, p <0.0002, n=8
  RLC20 phosphorylation, basal (unstimulated) state: significantly decreased
[2]; S1P 0.25 μM, HS38 50 μM, p <0.004, n=8
  RLC20 phosphorylation, S1P stimulated state: significantly decreased
[3]
  RLC20 phosphorylation level: significantly reduced
[4]
  dilation of vessels previously constricted with 5HT: induced dilation
